# Data taken from US20240067693A1, “POLYPEPTIDES AND USES THEREOF” (MEDIMMUNE LIMITED, priority 2020, published 2024).
# Numbered stars: 1 amine (or outer) side, 2 acyl side, 3 side chain; on linkers, the order of the positions; unused ones are H or OH. Bridge positions count the residues as written; N and C are the ends. Square brackets hold non-standard residues; d marks the D form. Side chains are listed from the residue outwards. Peptide text beside a SMILES is read from it. * marks the point of attachment. C18 diacid = O=C(O)CCCCCCCCCCCCCCCCC(=O)*; γGlu = O=C(O)[C@H](CCC(=O)[*:2])N[*:1]; Aib = CC(C)(N)C(=O)O
# How the values were obtained:
# [1] = target: T1, human amylin receptor (calcitonin receptor co-expressed with receptor activity modifying protein, RAMP3) (hAMYR3) (Homo sapiens, UniProt O60896+P30988); assay: cAMP production in 1321N1 cells with stable recombinant expression of human amylin receptor (hAMYR3); assay type: cell-based; conditions: for Ratio (selectivity hAMYR vs hCTR, ratio of EC50 values at the two receptors): EC50 hCTR / EC50 hAMYR3; for EC50: cAMP, 1321N1 cells, assay buffer with 0.1% BSA, read-out: EC50 (pM) hAMYR3
# T1 construct: expressed in transfected cells
# T1 sequence (P30988 25-474): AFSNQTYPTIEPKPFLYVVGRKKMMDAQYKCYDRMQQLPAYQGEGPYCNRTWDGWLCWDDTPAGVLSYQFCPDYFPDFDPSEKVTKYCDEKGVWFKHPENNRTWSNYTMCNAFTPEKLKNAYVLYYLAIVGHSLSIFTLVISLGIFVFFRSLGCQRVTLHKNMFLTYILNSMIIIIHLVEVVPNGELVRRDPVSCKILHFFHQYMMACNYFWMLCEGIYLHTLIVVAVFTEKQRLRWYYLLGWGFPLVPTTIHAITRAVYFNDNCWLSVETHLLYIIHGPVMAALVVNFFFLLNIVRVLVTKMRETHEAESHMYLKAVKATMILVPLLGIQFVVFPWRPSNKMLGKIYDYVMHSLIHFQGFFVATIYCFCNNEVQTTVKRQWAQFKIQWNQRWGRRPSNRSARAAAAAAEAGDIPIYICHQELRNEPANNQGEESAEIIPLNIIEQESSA
# T1 sequence (O60896 24-148 partner): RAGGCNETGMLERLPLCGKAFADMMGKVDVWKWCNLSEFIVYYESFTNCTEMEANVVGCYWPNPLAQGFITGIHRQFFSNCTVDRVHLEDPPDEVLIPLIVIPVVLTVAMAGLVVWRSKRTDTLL
# Procedure, shortened: (§1)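 Receptor-expressing cells (human receptors in 1321N1, rat receptors in HEK) incubated 30 min at room temperature with peptide in HBSS/HEPES pH 7.4, 0.1% BSA, 0.5 mM IBMX. cAMP read by HTRF; EC50 from 4-parameter fit as % of maximal amylin or calcitonin response.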
# [2] = target: T2, human calcitonin receptor (hCTR) (Homo sapiens, UniProt P30988); assay: cAMP production in 1321N1 cells with stable recombinant expression of human calcitonin receptor (hCTR); assay type: cell-based; conditions: cAMP, 1321N1 cells, assay buffer with 0.1% BSA; read-out: EC50 (pM) hCTR
# T2 construct: expressed in transfected cells
# T2 sequence (P30988 25-474): T1 sequence (P30988 25-474)
# Procedure, shortened: as §1
smiles,measurement,setting,value
"CC[C@H](C)[C@H](NC(=O)[C@@H]1CCCN1C(=O)CNC(=O)[C@H](Cc1ccccc1)NC(=O)[C@H](CC(N)=O)NC(=O)[C@H](CC(N)=O)NC(=O)[C@H](CO)NC(=O)[C@H](CO)NC(=O)[C@H](Cc1c[nH]cn1)NC(=O)C(C)(C)NC(=O)[C@H](CC(C)C)NC(=O)[C@H](Cc1ccccc1)NC(=O)[C@H](CC(N)=O)NC(=O)[C@H](C)NC(=O)[C@H](CC(C)C)NC(=O)[C@H](CCCNC(=N)N)NC(=O)[C@H](CCC(N)=O)NC(=O)[C@@H](NC(=O)[C@H](C)NC(=O)[C@@H]1CSSC[C@H](NC(=O)[C@H](CCCCN)NC(=O)[C@@H](N)CCCCNC(=O)CC[C@H](NC(=O)CCCCCCCCCCCCCCCCC(=O)O)C(=O)O)C(=O)N[C@@H](CC(N)=O)C(=O)N[C@@H]([C@@H](C)O)C(=O)N[C@@H](C)C(=O)N[C@@H]([C@@H](C)O)C(=O)N1)[C@@H](C)O)C(=O)N[C@@H](CC(C)C)C(=O)N1CCC[C@H]1C(=O)N1CCC[C@H]1C(=O)N[C@H](C(=O)NC(C)(C)C(=O)N[C@H](C(=O)NCC(=O)N[C@@H](CO)C(=O)N[C@@H](CC(N)=O)C(=O)N[C@H](C(=O)N[C@@H](Cc1ccc(O)cc1)C(N)=O)[C@@H](C)O)C(C)C)[C@@H](C)O [Peptide 98, K(γE-C18diacid)K[CNTATC]ATQRLANFL(Aib)HSSNNFGPILPPT(Aib)VGSNTY-amide] (H-K([γGlu-C18 diacid])KCNTATCATQRLANFL[Aib]HSSNNFGPILPPT[Aib]VGSNTY-NH2; disulfide 3-8; N-terminus assumed)","Ratio (selectivity hAMYR vs hCTR, ratio of EC50 values at the two receptors)",[1],1
same,EC50,[1],942 pM
same,EC50,[2],972 pM
"CC[C@H](C)[C@H](NC(=O)[C@@H]1CCCN1C(=O)CNC(=O)[C@H](Cc1ccccc1)NC(=O)[C@H](CC(N)=O)NC(=O)[C@H](CC(N)=O)NC(=O)[C@H](CO)NC(=O)[C@H](CO)NC(=O)[C@H](Cc1c[nH]cn1)NC(=O)C(C)(C)NC(=O)[C@H](CC(C)C)NC(=O)[C@H](Cc1ccccc1)NC(=O)[C@H](CC(N)=O)NC(=O)[C@H](C)NC(=O)[C@H](CC(C)C)NC(=O)[C@H](CCCNC(=N)N)NC(=O)[C@H](CCC(N)=O)NC(=O)[C@@H](NC(=O)[C@H](C)NC(=O)[C@@H]1CSSC[C@H](NC(=O)[C@H](CCCCN)NC(=O)[C@@H](N)CCCCNC(=O)CC[C@H](NC(=O)CCCCCCCCCCCCCCCCC(=O)O)C(=O)O)C(=O)N[C@@H](CC(N)=O)C(=O)N[C@@H]([C@@H](C)O)C(=O)N[C@@H](C)C(=O)N[C@@H]([C@@H](C)O)C(=O)N1)[C@@H](C)O)C(=O)N[C@@H](CC(C)C)C(=O)N1CCC[C@H]1C(=O)N1CCC[C@H]1C(=O)N[C@H](C(=O)N[C@@H](CC(N)=O)C(=O)NC(C)(C)C(=O)NCC(=O)N[C@@H](CO)C(=O)N[C@@H](CC(N)=O)C(=O)N[C@H](C(=O)N[C@@H](Cc1ccc(O)cc1)C(N)=O)[C@@H](C)O)[C@@H](C)O [Peptide 99, K(γE-C18diacid)K[CNTATC]ATQRLANFL(Aib)HSSNNFGPILPPTN(Aib)GSNTY-amide] (H-K([γGlu-C18 diacid])KCNTATCATQRLANFL[Aib]HSSNNFGPILPPTN[Aib]GSNTY-NH2; disulfide 3-8; N-terminus assumed)","Ratio (selectivity hAMYR vs hCTR, ratio of EC50 values at the two receptors)",[1],0.5
same,EC50,[1],3800 pM
same,EC50,[2],1820 pM
"CC[C@H](C)[C@H](NC(=O)[C@@H]1CCCN1C(=O)CNC(=O)[C@H](Cc1ccccc1)NC(=O)[C@H](CC(N)=O)NC(=O)[C@H](CC(N)=O)NC(=O)[C@H](CO)NC(=O)[C@H](CO)NC(=O)[C@H](Cc1c[nH]cn1)NC(=O)C(C)(C)NC(=O)[C@H](CC(C)C)NC(=O)[C@H](Cc1ccccc1)NC(=O)[C@H](CC(N)=O)NC(=O)[C@H](C)NC(=O)[C@H](CC(C)C)NC(=O)[C@H](CCCNC(=N)N)NC(=O)[C@H](CCC(N)=O)NC(=O)[C@@H](NC(=O)[C@H](C)NC(=O)[C@@H]1CSSC[C@H](NC(=O)[C@H](CCCCN)NC(=O)[C@@H](N)CCCCNC(=O)CC[C@H](NC(=O)CCCCCCCCCCCCCCCCC(=O)O)C(=O)O)C(=O)N[C@@H](CC(N)=O)C(=O)N[C@@H]([C@@H](C)O)C(=O)N[C@@H](C)C(=O)N[C@@H]([C@@H](C)O)C(=O)N1)[C@@H](C)O)C(=O)N[C@@H](CC(C)C)C(=O)N1CCC[C@H]1C(=O)N1CCC[C@H]1C(=O)N[C@H](C(=O)N[C@@H](CC(N)=O)C(=O)N[C@H](C(=O)NC(C)(C)C(=O)N[C@@H](CO)C(=O)N[C@@H](CC(N)=O)C(=O)N[C@H](C(=O)N[C@@H](Cc1ccc(O)cc1)C(N)=O)[C@@H](C)O)C(C)C)[C@@H](C)O [Peptide 100, K(γE-C18diacid)K[CNTATC]ATQRLANFL(Aib)HSSNNFGPILPPTNV(Aib)SNTY-amide] (H-K([γGlu-C18 diacid])KCNTATCATQRLANFL[Aib]HSSNNFGPILPPTNV[Aib]SNTY-NH2; disulfide 3-8; N-terminus assumed)","Ratio (selectivity hAMYR vs hCTR, ratio of EC50 values at the two receptors)",[1],1
same,EC50,[1],364 pM
same,EC50,[2],459 pM
"CC[C@H](C)[C@H](NC(=O)[C@@H]1CCCN1C(=O)CNC(=O)[C@H](Cc1ccccc1)NC(=O)[C@H](CC(N)=O)NC(=O)[C@H](CC(N)=O)NC(=O)[C@H](CO)NC(=O)[C@H](CO)NC(=O)[C@H](Cc1c[nH]cn1)NC(=O)C(C)(C)NC(=O)[C@H](CC(C)C)NC(=O)[C@H](Cc1ccccc1)NC(=O)[C@H](CC(N)=O)NC(=O)[C@H](C)NC(=O)[C@H](CC(C)C)NC(=O)[C@H](CCCNC(=N)N)NC(=O)[C@H](CCC(N)=O)NC(=O)[C@@H](NC(=O)[C@H](C)NC(=O)[C@@H]1CSSC[C@H](NC(=O)[C@H](CCCCN)NC(=O)[C@@H](N)CCCCNC(=O)CC[C@H](NC(=O)CCCCCCCCCCCCCCCCC(=O)O)C(=O)O)C(=O)N[C@@H](CC(N)=O)C(=O)N[C@@H]([C@@H](C)O)C(=O)N[C@@H](C)C(=O)N[C@@H]([C@@H](C)O)C(=O)N1)[C@@H](C)O)C(=O)N[C@@H](CC(C)C)C(=O)N1CCC[C@H]1C(=O)N1CCC[C@H]1C(=O)N[C@H](C(=O)N[C@@H](CC(N)=O)C(=O)N[C@H](C(=O)NCC(=O)NC(C)(C)C(=O)N[C@@H](CC(N)=O)C(=O)N[C@H](C(=O)N[C@@H](Cc1ccc(O)cc1)C(N)=O)[C@@H](C)O)C(C)C)[C@@H](C)O [Peptide 101, K(γE-C18diacid)K[CNTATC]ATQRLANFL(Aib)HSSNNFGPILPPTNVG(Aib)NTY-amide] (H-K([γGlu-C18 diacid])KCNTATCATQRLANFL[Aib]HSSNNFGPILPPTNVG[Aib]NTY-NH2; disulfide 3-8; N-terminus assumed)","Ratio (selectivity hAMYR vs hCTR, ratio of EC50 values at the two receptors)",[1],2
same,EC50,[1],177 pM
same,EC50,[2],441 pM
"CC[C@H](C)[C@H](NC(=O)[C@@H]1CCCN1C(=O)CNC(=O)[C@H](Cc1ccccc1)NC(=O)[C@H](CC(N)=O)NC(=O)[C@H](CC(N)=O)NC(=O)[C@H](CO)NC(=O)[C@H](CO)NC(=O)[C@H](Cc1c[nH]cn1)NC(=O)C(C)(C)NC(=O)[C@H](CC(C)C)NC(=O)[C@H](Cc1ccccc1)NC(=O)[C@H](CC(N)=O)NC(=O)[C@H](C)NC(=O)[C@H](CC(C)C)NC(=O)[C@H](CCCNC(=N)N)NC(=O)[C@H](CCC(N)=O)NC(=O)[C@@H](NC(=O)[C@H](C)NC(=O)[C@@H]1CSSC[C@H](NC(=O)[C@H](CCCCN)NC(=O)[C@@H](N)CCCCNC(=O)CC[C@H](NC(=O)CCCCCCCCCCCCCCCCC(=O)O)C(=O)O)C(=O)N[C@@H](CC(N)=O)C(=O)N[C@@H]([C@@H](C)O)C(=O)N[C@@H](C)C(=O)N[C@@H]([C@@H](C)O)C(=O)N1)[C@@H](C)O)C(=O)N[C@@H](CC(C)C)C(=O)N1CCC[C@H]1C(=O)N1CCC[C@H]1C(=O)N[C@H](C(=O)N[C@@H](CC(N)=O)C(=O)N[C@H](C(=O)NCC(=O)N[C@@H](CO)C(=O)NC(C)(C)C(=O)N[C@H](C(=O)N[C@@H](Cc1ccc(O)cc1)C(N)=O)[C@@H](C)O)C(C)C)[C@@H](C)O [Peptide 102, K(γE-C18diacid)K[CNTATC]ATQRLANFL(Aib)HSSNNFGPILPPTNVGS(Aib)TY-amide] (H-K([γGlu-C18 diacid])KCNTATCATQRLANFL[Aib]HSSNNFGPILPPTNVGS[Aib]TY-NH2; disulfide 3-8)","Ratio (selectivity hAMYR vs hCTR, ratio of EC50 values at the two receptors)",[1],3
same,EC50,[1],479 pM
same,EC50,[2],1630 pM
